Test results published in patent publication US11052086B2, “2-anilinopyrimidine derivatives as therapeutic agents for treatment of brain cancers” (Beta Pharma, Inc., priority 2016, dated 2021).
Read-outs that look alike come from different tables or passages of the source.

What was measured:
[1] = test system: NCI-H1975-Luc cells; assay: Intracranially implanted NCI-H1975-Luc tumor efficacy study in mice (BLI and survival); type: in vivo
Description: N-(2-(2-(Dimethylamino)ethoxy)-4-methoxy-5-((4-(1-methyl-1H-indol-3-yl)pyrimidin-2-yl)amino)phenyl)acrylamide methanesulfonate (1⋅Ms; C27H30N6O3.1.06 CH3SO3H. MW=486.58, FW=588.45, purity=100%) was formulated in a vehicle of 1% polysorbate 80 in water. The complete vehicle was added to the pre-weighed compound to achieve a 5 mg/mL stock solution, suitable for treatment of the 50 mg/kg dose level. The mixture was vortexed for approximately one minute resulting in a light yellow solution with a pH value of 7. The dosing solution was prepared fresh daily.
Female Envigo Nude mice (Hsd:Athymic Nude-Foxn1^nu) were used. They were 6-7 weeks old on Day 1 of the experiment. The animals were fed irradiated Harlan 2918.15 Rodent Diet and water ad libitum. Animals were housed in static cages with Bed-O'Cobs™ bedding inside Biobubble® Clean Rooms that provide H. E. P. A filtered air into the bubble environment at 100 complete air changes per hour. All treatments, body weight determinations, and tumor measurements were carried out in the bubble environment. The environment was controlled to a temperature range of 70±2 OF and a humidity range of 30-70%.
NCI-H1975-Luc cells were obtained from Clovis. They were grown in RPMI 1640 medium which was modified with 1 mM Na pyruvate+2 mM L-glutamine+10 mM HEPES+2.5 g/L glucose+5 ug/mL blasticidin and supplemented with 10% non-heat-inactivated Fetal Bovine Serum (FBS) and 1% 100× Penicillin/Streptomycin/L-Glutamine (PSG). The growth environment was maintained in an incubator with a 5% CO2 atmosphere at 37° C. When expansion was complete, the cells (passage 4) were trypsinized using 0.25% trypsin-EDTA solution. Following cell detachment, the trypsin was inactivated by dilution with complete growth medium and any clumps of cells were separated by pipetting. The cells were centrifuged at 200 ref for 8 minutes at 4° C. the supernatant was aspirated, and the pellet was re-suspended in cold Dulbecco's Phosphate Buffered Saline (DPBS) by pipetting. An aliquot of the homogeneous cell suspension was diluted in a trypan blue solution and counted using a Luna automated cell counter to determine a pre-implantation cell viability. The cell suspension was centrifuged at 200 ref for 8 minutes at 4° C. The supernatant was aspirated and the cell pellet was re-suspended in cold serum-free medium to generate a final concentration of 1.00E+08 trypan-excluding cells/mL. The cell suspension was maintained on wet ice during implantation. Following implantation, an aliquot of the remaining cells was diluted with a trypan blue solution and counted to determine the post-implantation cell viability.
Test mice were implanted intracranially on Day 0 with 1.00E+06 cells per 10 μL as per the protocol (Appendix 1). For aseptic surgical implantation, mice were injected with 0.2 mg/kg buprenorphine and anesthetized using 2% isoflurane in air. The mice were then secured in a stereotaxic frame (ASI instruments, Inc.) using non-rupture ear bars. Ocular ointment was applied to the eyes of the mice to prevent drying during surgery. A re-circulating 37° C. water heated pad was used to maintain the animal's body temperature during the implantation procedure. Once in the stereotaxic frame, the cranium was swabbed with alternating chlorhexidine solution and 70% ethanol-saturated swabs to disinfect the skin surface and prepare for the incision. A 1 cm longitudinal incision was made centrally over bregma of the cranium using a #15 BD scalpel blade. The incision was retracted using small, serrated serrefines. The thin layer of connective tissue covering the surface of the skull was removed using dry cotton swabs under light pressure. Bleeding vessels were cauterized to prevent blood loss. A 0.9 mm drill bit was then centered over bregma, moved 2 mm right lateral, 1 mm anterior to the coronal suture and lowered to score the surface of the skull using the stereotaxic electrode manipulator arm. […]

[2] = Pharmacokinetics in male SD rats dosed PO (plasma and brain); type: in vivo, rat; details: male SD rats PO 5 mg/kg; for Cmax: 0.5% methylcellulose vehicle; for MRT inf: read-out: MRT0-inf; for MRT last: read-out: MRT0-last
[3] = test system: kinase domain of the T790M double mutant; assay: Inhibition of EGFR T790M double mutant kinase domain; type: biochemical; details: in addition to the activating mutations
[4] = 50 mg/kg, PO, QD×14 (Days 5-18)

C=CC(=O)Nc1cc(Nc2nccc(-c3cn(C)c4ccccc34)n2)c(OC)cc1OCCN(C)C [1⋅Ms, N-(2-(2-(Dimethylamino)ethoxy)-4-methoxy-5-((4-(1-methyl-1H-indol-3-yl)pyrimidin-2-yl)amino)phenyl)acrylamide methanesulfonate]
increase in lifespan [1, 4]: 15 days
BLI derived Day 13 % T/C ([1]; 50 mg/kg, PO, QD×14 (Days 5-18), median BLI signal treated/control ×100, P<0.05): 1%
% ILS (life-span increase vs. vehicle) ([1]; 50 mg/kg, PO, QD×14 (Days 5-18), methanesulfonate): 107%
median lifespan ([1]; 50 mg/kg, PO, QD×14 (Days 5-18), p<0.001): 29.0 days
tolerability of treatment ([1]; 50 mg/kg, PO, QD×14 in nude mice): well-tolerated
animals with complete regressions ([1]; By Day 18, 50 mg/kg PO QD×14, CR = BLI below 2.0E+05 photons/sec): none
animals with partial tumor regressions ([1]; By Day 18, 50 mg/kg PO QD×14, PR = ≥50% decrease in tumor BLI signal): 100%
AUC0-inf ([2]; Brain): 5085 ng·h/g
AUC0-last ([2]; Brain): 5047 ng·h/g
AUCExtra ([2]; Brain): 0.746%
AUMCExtra ([2]; Brain): 2.57%
Tlast ([2]; Brain): 18.0 h
AUCExtra ([2]; Plasma): 0.593%
AUMCExtra ([2]; Plasma): 2.42%
Tlast ([2]; Plasma): 18.0 h
Kp ([2]; rat, Brain (vs plasma), read-out: AUC Ratio): 9.44
Tmax ([2]; rat, Brain): 2 h
half-life ([2]; rat, Brain): 2.01 h
Cmax ([2]; rat, Brain): 606 ng/g
MRT inf ([2]; rat, Brain): 6.07 h
MRT last ([2]; rat, Brain): 5.95 h
AUC(0-t) ([2]; rat, Plasma): 535 ng·h/mL
Tmax ([2]; rat, Plasma): 2 h
half-life ([2]; rat, Plasma): 1.97 h
Cmax ([2]; rat, Plasma): 96.3 ng/mL
AUC0-inf ([2]; rat, Plasma, read-out: AUC0-inf): 538 ng·h/mL
MRT inf ([2]; rat, Plasma): 5.1 h
MRT last ([2]; rat, Plasma): 5.01 h

C=CC(=O)Nc1cc(Nc2nccc(-c3cn(C)c4ccccc34)n2)c(OC)cc1OCCN(C)C [Compound 1]
% ILS (life-span increase vs. vehicle) [1, 4]: greater than 100%
inhibition of the kinase domain of the T790M double mutant [3]: effectively inhibits
